pIC50: −log10 of the molar value.
Experiments:
Assay type in all cases: cell-based
[1] = test system: Ba/F3 parental cells; experiment: Cell growth inhibitory activity assay (CellTiter-Glo), Ba/F3 parental cells; settings: Mus musculus, BaF3, 72 h, CTG cell viability, read-out: IC50 Ba/F3 BCR-ABL1 Parental
Procedure: (§1) In this assay, the Celltiter-Glo (CTG) kit provided by Promega was used, and it is a homogeneous cell viability assay method. The cell viability of cultured cells was measured by quantifying ATP. K562 cells were purchased from Nanjing Kebai, product number CBP60529; Ba/F3 parental cells were purchased from RIKEN BRC, product number RCB0805; other cells containing BCR-ABL1 WT, BCR-ABL1 T315I, BCR-ABL1 T315M, BCR-ABL1 Y253H/E255K, BCR-ABL1 E255V/T3151, BCR-ABL1 A424T, BCR-ABL1 A337V, BCR-ABL1 P465S, BCR-ABL1 V468F, and BCR-ABL1 I502L were all monoclonal engineered cell lines obtained by transducting Ba/F3 parental cells with the lentivirus plasmids containing WT or corresponding mutated BCR-ABL1.
(§2) The steps of cell viability assay are as follows: • a) Cells in logarithmic growth phase were collected. Cell suspension was prepared and the cells were counted. Concentration of the cells was calculated. • b) The cell suspension was diluted to the required concentration and then added to the middle wells of a 96-well plate, and PBS was added to the edge wells. The wells with no cells and only culture medium were used as blank controls. • c) In addition to the cell plate used for compound analysis, another 96-well plate was prepared as a T0 plate, and 3-6 blank wells and 3-6 cell wells were added. The next day, CTG was used to test the cell viability as the T0 viability value of the cells. • d) The cell plate was incubated at 37 °C in a 5% CO2 incubator overnight. • e) The next day, each concentration of a compound subjected to a gradient dilution was added, and the cell plate was incubated at 37 °C in a 5% CO2 incubator for 72 h. The wells with no compound and only 0.5% DMSO were used as positive controls for cell growth. • f) CTG reagent (CellTiter-Glo kit) was added according to the manufacturer's instructions to test the cell viability value. • g) The plate was read using Biotek cytation3.0 microplate reader and the data were exported. • h) IC50 was calculated using GraphPad Prism 7.0 software.
(§3) The IC50 (half-maximal inhibitory concentration) of the compound was obtained using the following nonlinear fitting formula: Y = Bottom + (Top−Bottom)/(1+10^(∧)((LogIC50−X)*HillSlope)) [formula] • X: Log value of the compound concentration • Y: Inhibition rate (% inhibition) • Top: Maximum response • Bottom: Baseline response • HillSlope: Slope of the curve
(§4) The formula for calculating cell inhibition rate (inhibition rate %) was: [formula]

[2] = target: T1, Ba/F3 BCR-ABL1 T315I (Homo sapiens, UniProt P00519+P11274, T315I); experiment: Cell growth inhibitory activity assay (CellTiter-Glo), Ba/F3 BCR-ABL1 T315I cells; settings: 72 h, CTG cell viability
T1 construct: BCR (N-terminal fusion partner of the oncoprotein); expressed in transfected cells; host or cells: Ba/F3 (lentiviral transduction, monoclonal line)
Procedure: as §1, §2, §3, §4

[3] = target: T2, Ba/F3 BCR-ABL1 WT (Homo sapiens, UniProt P00519+P11274); experiment: Cell growth inhibitory activity assay (CellTiter-Glo), Ba/F3 BCR-ABL1 WT cells; settings: 72 h, CTG cell viability
T2 construct: BCR (N-terminal fusion partner of the oncoprotein); expressed in transfected cells; host or cells: Ba/F3 (lentiviral transduction, monoclonal line)
Procedure: as §1, §2, §3, §4

[4] = test system: K562 cells; experiment: Cell growth inhibitory activity assay (CellTiter-Glo), K562 cells; settings: Homo sapiens, 72 h, CTG cell viability
Procedure: as §1, §2, §3, §4

Row | pIC50 [4] | SMILES | pIC50 [1] | pIC50 [2] | pIC50 [3]
1 | ≥ 8.30 | CCC(=O)n1cc2c(n1)-c1cc(-c3cc(C(=O)Nc4ccc(OC(F)(F)Cl)cc4)cc4nc5n(c34)[C@H](C)COC5)cnc1C2 [T-45, (R)-N-(4-(chlorodifluoromethoxy)phenyl)-4-methyl-6-(2-propionyl-2,4-dihydropyrazolo[3',4':3,4]cyclopenta[1,2-b]pyridin-7-yl)-3,4-dihydro-1H-benzo[4,5]imidazo[2,1-c][1,4]oxazine-8-carboxamide] | < 6.00 | ≥ 8.30 | ≥ 8.30
2 | ≥ 8.30 | CC(C)C(=O)n1cc2c(n1)-c1cc(-c3cc(C(=O)Nc4ccc(OC(F)(F)Cl)cc4)cc4nc5n(c34)[C@H](C)COC5)cnc1C2 [T-46, (R)-N-(4-(chlorodifluoromethoxy)phenyl)-6-(2-isobutyryl-2,4-dihydropyrazolo[3',4':3,4]cyclopenta[1,2-b]pyridin-7-yl)-4-methyl-3,4-dihydro-1H-benzo[4,5]imidazo[2,1-c][1,4]oxazine-8-carboxamide] | < 6.00 | ≥ 8.30 | ≥ 8.30
3 | ≥ 8.30 | [2H]C([2H])([2H])n1cc2c(n1)-c1cc(-c3cc(C(=O)Nc4ccc(OC(F)(F)Cl)cc4)cc4nc5n(c34)[C@H](C)COC5)cnc1C2 [T-53, (R)-N-(4-(chlorodifluoromethoxv)phenyl)-4-methyl-6-(2-(methyl-d3)-2,4-dihydropyrazolo[3',4':3,4]cyclopenta[1,2-b]pyridin-7-yl)-3,4-dihydro-1H-benzo[4,5]imidazo[2,1-c][1,4]oxazine-8-carboxamide] | < 6.00 | ≥ 8.30 | ≥ 8.30
4 | ≥ 8.30 | C[C@@H]1COCc2nc3cc(C(=O)Nc4ccc(OC(F)(F)Cl)cc4)cc(-c4cnc5c(c4)C(=O)CC5)c3n21 [T-58, (R)-N-(4-(chlorodifluoromethoxy)phenyl)-4-methyl-6-(5-oxo-6,7-dihydro-5H-cyclopenta[b]pyridin-3-yl)-3,4-dihydro-1H-benzo[4,5]imidazo[2,1-c][1,4]oxazine-8-carboxamide] | < 6.00 | 7.30 to 8.30 | ≥ 8.30
5 | ≥ 8.30 | C[C@@H]1COCc2nc3cc(C(=O)Nc4ccc(OC(F)(F)Cl)cc4)cc(-c4cnc5c(c4)C(=O)/C(=C\N(C)C)C5)c3n21 [T-59, (R,Z)-N-(4-(chlorodifluoromethoxy)phenyl)-6-(6-((dimethylamino)methylene)-5-oxo-6,7-dihydro-5H-cyclopenta[b]pyridin-3-yl)-4-methyl-3,4-dihydro-1H-benzo[4,5]imidazo[2,1-c][1,4]oxazine-8-carboxamide] | < 6.00 | 6.00 to 7.30 | ≥ 8.30
6 | ≥ 8.30 | C[C@@H]1COCc2nc3cc(C(=O)Nc4ccc(OC(F)(F)Cl)cc4)cc(-c4cnc5c(c4)-c4n[nH]cc4C5=O)c3n21 [T-60, (R)-N-(4-(chlorodifluoromethoxy)phenyl)-4-methyl-6-(4-oxo-2,4-dihydropyrazolo[3',4':3,4]cyclopenta[1,2-b]pyridin-7-yl)-3,4-dihydro-1H-benzo[4,5]imidazo[2,1-c][1,4]oxazine-8-carboxamide] | < 6.00 | < 6.00 | ≥ 8.30

More lines, now with the values behind:

Row | SMILES | pIC50 [4] | pIC50 [1] | pIC50 [2] | pIC50 [3]
7 | Cn1ccc2cnc(-n3cc4c(n3)-c3cc(-c5cc(C(=O)Nc6ccc(OC(F)(F)Cl)cc6)cnc5N5CC[C@@H](F)C5)cnc3C4)nc21 [T-38, (R)-N-(4-(chlorodifluoromethoxy)phenyl)-6-(3-fluoropyrrolidin-1-yl)-5-(2-(7-methyl-7H-pyrrolo[2,3-d]pyrimidin-2-yl)-2,4-dihydropyrazolo[3',4':3,4]cyclopenta[1,2-b]pyridin-7-yl)nicotinamide] | ≥ 8.30 | < 6.00 | ≥ 8.30 | ≥ 8.30
8 | C[C@@H]1CN(C)Cc2nc3cc(C(=O)Nc4ccc(OC(F)(F)Cl)cc4)cc(-c4cnc5c(c4)-c4n[nH]cc4C5)c3n21 [T-40, (R)-N-(4-(chlorodifluoromethoxy)phenyl)-6-(2,4-dihydropyrazolo[3',4':3,4]cyclopenta[1,2-b]pyridin-7-yl)-2,4-dimethyl-1,2,3,4-tetrahydrobenzo[4,5]imidazo[1,2-a]pyrazine-8-carboxamide] | ≥ 8.30 | < 6.00 | < 6.00 | ≥ 8.30
9 | O=C(Nc1ccc(OC(F)(F)Cl)cc1)c1cnc(N2CC[C@@H](F)C2)c(-c2cnc3c(c2)-c2nn(-c4ncc5ccsc5n4)cc2C3)c1 [T-44, (R)-N-(4-(chlorodifluoromethoxy)phenyl)-6-(3-fluoropyrrolidin-1-yl)-5-(2-(thieno[2,3-d]pyrimidin-2-yl)-2,4-dihydropyrazolo[3',4':3,4]cyclopenta[1,2-b]pyridin-7-yl)nicotinamide] | ≥ 8.30 | < 6.00 | ≥ 8.30 | ≥ 8.30
10 | C[C@@H]1COCc2nc3cc(C(=O)Nc4ccc(OC(F)(F)Cl)cc4)cc(-c4cnc5c(c4)-c4nn(C(=O)C6CC6)cc4C5)c3n21 [T-47, (R)-N-(4-(chlorodifluoromethoxy)phenyl)-6-(2-(cyclopropylcarbonyl)-2,4-dihydropyrazolo[3',4':3,4]cyclopenta[1,2-b]pyridin-7-yl)-4-methyl-3,4-dihydro-1H-benzo[4,5]imidazo[2,1-c][1,4]oxazine-8-carboxamide] | ≥ 8.30 | < 6.00 | ≥ 8.30 | ≥ 8.30
11 | O=C(Nc1ccc(OC(F)(F)Cl)cc1)c1cnc(N2CC[C@@H](F)C2)c(-c2cnc3c(c2)-c2nn(-c4ncc(N5CC[C@@H](F)C5)cn4)cc2C3)c1 [T-50, N-(4-(chlorodifluoromethoxy)phenyl)-6-((R)-3-fluoropyrrolidin-1-yl)-5-(2-(5-((R)-3-fluoropyrrolidin-1-yl)pyrimidin-2-yl)-2,4-dihydropyrazolo[3',4':3,4]cyclopenta[1,2-b]pyridin-7-yl)nicotinamide] | ≥ 8.30 | < 6.00 | 7.30 to 8.30 | ≥ 8.30
12 | O=C(Nc1ccc(OC(F)(F)Cl)cc1)c1cnc(N2CC[C@@H](F)C2)c(-c2cnc3c(c2)-c2nn(-c4ncc(N5CC[C@H](F)C5)cn4)cc2C3)c1 [T-55, N-(4-(chlorodifluoromethoxy)phenyl)-6-((R)-3-fluoropyrrolidin-1-yl)-5-(2-(5-((S)-3-fluoropyrrolidin-1-yl)pyrimidin-2-yl)-2,4-dihydropyrazolo[3',4':3,4]cyclopenta[1,2-b]pyridin-7-yl)nicotinamide] | ≥ 8.30 | < 6.00 | 7.30 to 8.30 | ≥ 8.30
13 | C[C@@H]1COCc2nc3cc(C(=O)Nc4ccc(OC(F)(F)Cl)cc4)cc(-c4cnc5c(c4)-c4nn(CCOC(C)(C)C)cc4C5)c3n21 [T-56-A, (R)-6-(2-(2-(tert-butoxy)ethyl)-2,4-dihydropyrazolo[3',4':3,4]cyclopenta[1,2-b]pyridin-7-yl)-N-(4-(chlorodifluoromethoxy)phenyl)-4-methyl-3,4-dihydro-1H-benzo[4,5]imidazo[2,1-c][1,4]oxazine-8-carboxamide] | 7.30 to 8.30 | < 6.00 | < 6.00 | 6.00 to 7.30
14 | C[C@@H]1COCc2nc3cc(C(=O)Nc4ccc(OC(F)(F)Cl)cc4)cc(-c4cnc5c(c4)-c4c(cnn4CCOC(C)(C)C)C5)c3n21 [T-56-B, (R)-6-(1-(2-(tert-butoxy)ethyl)-1,4-dihydropyrazolo[3',4':3,4]cyclopenta[1,2-b]pyridin-7-yl)-N-(4-(chlorodifluoromethoxy)phenyl)-4-methyl-3,4-dihydro-1H-benzo[4,5]imidazo[2,1-c][1,4]oxazine-8-carboxamide] | ≥ 8.30 | < 6.00 | < 6.00 | ≥ 8.30
15 | C[C@@H]1COCc2nc3cc(C(=O)Nc4ccc(OC(F)(F)Cl)cc4)cc(-c4ccc5c(c4)C(=O)N(C)C5)c3n21 [T-61, (R)-N-(4-(chlorodifluoromethoxy)phenyl)-4-methyl-6-(2-methyl-3-oxoisoindolin-5-yl)-3,4-dihydro-1H-benzo[4,5]imidazo[2,1-c][1,4]oxazine-8-carboxamide] | ≥ 8.30 | < 6.00 | 7.30 to 8.30 | ≥ 8.30
